Data reported in ChEMBL document CHEMBL1201862, “PubChem BioAssay data set” (2004).
The source made the active and inactive calls.

Experiments:
[1] = target: Photoreceptor-specific nuclear receptor (Homo sapiens, UniProt Q9Y5X4); format: functional;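 further: potency for compounds that break the NR2E3 corepressor complex and count as activators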
[2] = target: T1, Voltage-gated N-type calcium channel alpha-1B subunit/Amyloid beta A4 precursor protein-binding family A member 1 (Homo sapiens, UniProt Q00975+Q02410); format: protein assay
T1 sequence (Q00975 whole entry): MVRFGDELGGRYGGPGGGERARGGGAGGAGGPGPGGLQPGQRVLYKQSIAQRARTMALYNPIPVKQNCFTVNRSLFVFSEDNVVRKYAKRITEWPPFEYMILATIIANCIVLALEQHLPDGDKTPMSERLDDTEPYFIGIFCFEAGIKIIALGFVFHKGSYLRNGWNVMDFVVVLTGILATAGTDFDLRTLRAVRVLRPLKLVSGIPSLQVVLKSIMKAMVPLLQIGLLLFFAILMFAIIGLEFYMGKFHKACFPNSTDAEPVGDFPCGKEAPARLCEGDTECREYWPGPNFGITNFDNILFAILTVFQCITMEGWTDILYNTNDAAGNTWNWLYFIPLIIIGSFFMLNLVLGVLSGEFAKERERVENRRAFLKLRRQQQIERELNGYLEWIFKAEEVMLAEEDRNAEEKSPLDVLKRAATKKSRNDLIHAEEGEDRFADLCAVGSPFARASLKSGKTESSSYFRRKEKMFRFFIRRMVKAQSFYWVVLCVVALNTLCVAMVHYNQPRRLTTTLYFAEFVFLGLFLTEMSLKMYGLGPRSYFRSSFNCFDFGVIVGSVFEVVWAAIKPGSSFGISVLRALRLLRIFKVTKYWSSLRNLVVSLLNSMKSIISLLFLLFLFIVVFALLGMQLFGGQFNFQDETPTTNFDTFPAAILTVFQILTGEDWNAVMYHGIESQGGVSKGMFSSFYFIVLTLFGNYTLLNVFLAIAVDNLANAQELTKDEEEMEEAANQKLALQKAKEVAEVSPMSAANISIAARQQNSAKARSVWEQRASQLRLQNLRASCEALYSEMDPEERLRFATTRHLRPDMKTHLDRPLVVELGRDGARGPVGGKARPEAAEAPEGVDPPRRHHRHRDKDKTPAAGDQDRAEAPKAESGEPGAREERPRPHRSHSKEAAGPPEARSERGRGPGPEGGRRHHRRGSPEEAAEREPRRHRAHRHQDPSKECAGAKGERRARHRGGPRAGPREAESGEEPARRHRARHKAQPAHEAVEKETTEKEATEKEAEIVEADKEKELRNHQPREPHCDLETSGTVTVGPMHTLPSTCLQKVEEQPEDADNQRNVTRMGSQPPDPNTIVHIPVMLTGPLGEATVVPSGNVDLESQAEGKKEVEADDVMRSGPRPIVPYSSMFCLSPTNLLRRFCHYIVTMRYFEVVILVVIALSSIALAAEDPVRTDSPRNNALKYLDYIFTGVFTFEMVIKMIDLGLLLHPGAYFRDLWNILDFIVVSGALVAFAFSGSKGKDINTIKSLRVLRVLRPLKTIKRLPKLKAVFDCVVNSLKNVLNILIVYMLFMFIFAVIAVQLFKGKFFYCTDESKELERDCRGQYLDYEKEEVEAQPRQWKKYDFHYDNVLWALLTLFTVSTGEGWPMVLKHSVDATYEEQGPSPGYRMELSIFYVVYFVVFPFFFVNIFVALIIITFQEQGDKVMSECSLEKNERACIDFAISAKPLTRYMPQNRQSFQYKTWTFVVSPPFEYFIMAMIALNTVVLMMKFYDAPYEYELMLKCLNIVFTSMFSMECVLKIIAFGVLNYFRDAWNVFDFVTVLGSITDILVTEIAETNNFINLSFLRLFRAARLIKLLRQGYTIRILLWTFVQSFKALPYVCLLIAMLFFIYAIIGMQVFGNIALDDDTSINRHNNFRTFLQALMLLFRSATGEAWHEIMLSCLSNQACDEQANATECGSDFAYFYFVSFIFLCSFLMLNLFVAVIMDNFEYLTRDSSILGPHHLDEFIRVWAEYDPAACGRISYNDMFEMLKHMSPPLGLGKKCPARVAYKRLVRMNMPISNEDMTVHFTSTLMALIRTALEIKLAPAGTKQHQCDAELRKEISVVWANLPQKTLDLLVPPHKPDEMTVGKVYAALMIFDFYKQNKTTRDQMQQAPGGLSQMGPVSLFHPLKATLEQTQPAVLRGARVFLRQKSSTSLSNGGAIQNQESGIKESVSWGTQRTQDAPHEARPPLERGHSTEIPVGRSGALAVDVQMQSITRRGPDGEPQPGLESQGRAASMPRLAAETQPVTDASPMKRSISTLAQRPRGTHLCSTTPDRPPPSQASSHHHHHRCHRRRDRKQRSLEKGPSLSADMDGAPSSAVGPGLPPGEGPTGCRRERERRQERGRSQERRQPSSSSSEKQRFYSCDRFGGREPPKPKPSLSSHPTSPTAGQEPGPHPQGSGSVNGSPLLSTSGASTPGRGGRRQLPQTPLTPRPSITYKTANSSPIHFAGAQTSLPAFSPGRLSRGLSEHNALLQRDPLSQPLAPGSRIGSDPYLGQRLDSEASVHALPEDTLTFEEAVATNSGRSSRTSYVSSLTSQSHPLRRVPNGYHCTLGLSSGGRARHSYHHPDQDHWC
T1 sequence (Q02410 whole entry): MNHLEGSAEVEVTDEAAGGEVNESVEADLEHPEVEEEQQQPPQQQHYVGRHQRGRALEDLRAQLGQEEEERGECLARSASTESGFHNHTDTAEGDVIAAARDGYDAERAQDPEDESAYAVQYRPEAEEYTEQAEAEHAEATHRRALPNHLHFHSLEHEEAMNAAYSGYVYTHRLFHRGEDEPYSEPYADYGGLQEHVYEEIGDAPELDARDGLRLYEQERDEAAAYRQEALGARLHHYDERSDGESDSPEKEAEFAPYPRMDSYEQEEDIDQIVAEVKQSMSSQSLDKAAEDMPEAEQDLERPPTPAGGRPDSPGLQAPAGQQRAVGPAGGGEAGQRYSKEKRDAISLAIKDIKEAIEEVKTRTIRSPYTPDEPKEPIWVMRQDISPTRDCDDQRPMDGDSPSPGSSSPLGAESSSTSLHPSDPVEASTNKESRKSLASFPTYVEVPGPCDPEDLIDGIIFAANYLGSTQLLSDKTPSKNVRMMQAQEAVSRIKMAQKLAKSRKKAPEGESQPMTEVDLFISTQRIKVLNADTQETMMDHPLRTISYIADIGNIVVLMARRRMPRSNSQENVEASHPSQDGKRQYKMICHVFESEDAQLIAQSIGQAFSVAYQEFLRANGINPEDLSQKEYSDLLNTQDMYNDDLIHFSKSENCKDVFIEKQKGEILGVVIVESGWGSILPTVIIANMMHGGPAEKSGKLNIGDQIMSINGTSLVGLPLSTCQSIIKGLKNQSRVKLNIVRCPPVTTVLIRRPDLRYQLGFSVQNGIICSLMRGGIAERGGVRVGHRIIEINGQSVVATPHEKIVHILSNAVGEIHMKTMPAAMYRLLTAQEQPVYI

[3] = target: T1, Voltage-gated N-type calcium channel alpha-1B subunit/Amyloid beta A4 precursor protein-binding family A member 1; format: protein assay; remark: listed apart in the source
[4] = target: Protein-tyrosine kinase 2-beta (Homo sapiens, UniProt Q14289);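 further: potency of inhibitors of PYK2 kinase phosphorylation of poly-GT substrate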
Sequence of Protein-tyrosine kinase 2-beta (Q14289 whole entry): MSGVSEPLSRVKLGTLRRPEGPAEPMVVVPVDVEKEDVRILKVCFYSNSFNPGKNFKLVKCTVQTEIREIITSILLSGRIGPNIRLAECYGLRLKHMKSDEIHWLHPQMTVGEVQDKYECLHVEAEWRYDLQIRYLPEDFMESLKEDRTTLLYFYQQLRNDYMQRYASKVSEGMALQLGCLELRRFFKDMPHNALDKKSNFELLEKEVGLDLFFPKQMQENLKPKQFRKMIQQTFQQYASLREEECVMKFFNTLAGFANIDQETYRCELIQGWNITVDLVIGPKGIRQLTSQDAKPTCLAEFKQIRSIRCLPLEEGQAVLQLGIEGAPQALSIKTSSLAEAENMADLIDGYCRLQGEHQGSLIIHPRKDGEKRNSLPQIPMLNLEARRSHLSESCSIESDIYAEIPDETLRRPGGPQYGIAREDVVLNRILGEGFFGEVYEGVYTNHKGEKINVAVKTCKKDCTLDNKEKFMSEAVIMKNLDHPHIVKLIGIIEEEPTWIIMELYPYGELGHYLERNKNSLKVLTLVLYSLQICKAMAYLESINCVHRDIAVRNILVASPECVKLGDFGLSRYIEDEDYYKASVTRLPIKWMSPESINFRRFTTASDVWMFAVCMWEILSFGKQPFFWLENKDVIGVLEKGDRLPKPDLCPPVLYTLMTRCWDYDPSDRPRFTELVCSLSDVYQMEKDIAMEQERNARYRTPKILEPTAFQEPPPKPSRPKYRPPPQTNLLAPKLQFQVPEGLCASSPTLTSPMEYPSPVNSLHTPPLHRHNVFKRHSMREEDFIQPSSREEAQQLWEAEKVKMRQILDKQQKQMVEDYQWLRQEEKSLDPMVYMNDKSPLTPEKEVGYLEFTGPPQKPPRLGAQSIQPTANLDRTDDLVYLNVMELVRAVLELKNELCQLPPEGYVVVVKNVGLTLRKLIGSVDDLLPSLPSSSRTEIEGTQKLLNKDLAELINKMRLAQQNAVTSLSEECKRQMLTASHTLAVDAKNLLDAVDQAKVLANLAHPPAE

[5] = target: Peroxisome proliferator-activated receptor gamma/Nuclear receptor corepressor 2 (Homo sapiens, UniProt P37231+Q9Y618); format: functional
[6] = target: Genome polyprotein (Hepatitis C virus, UniProt Q2Q167); experiment: HCV core protein dimerization inhibitors, dose response, biochemical, TR-FRET (AID 2159); design: species or system Hepacivirus hominis;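 further: blocks dimerization of HCV core protein measured by TR-FRET between tagged core106 pairs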
Sequence of Genome polyprotein (Q2Q167 whole entry): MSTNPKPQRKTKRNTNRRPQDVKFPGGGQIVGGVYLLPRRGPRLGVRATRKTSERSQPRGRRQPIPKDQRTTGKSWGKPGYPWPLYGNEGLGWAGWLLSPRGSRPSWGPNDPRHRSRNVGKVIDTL

[7] = target: Neuropeptides B/W receptor type 1 (Homo sapiens, UniProt P48145); experiment: Fluorescence-based dose response cell-based high throughput screening assay to identify antagonists of the G-protein coupled receptor 7 (GPR7). [Related pubchem assays: 1952 (Screening assay (GPR7 antagonists).), 1880 (Summary AID.)]; format: functional
[8] = target: Melanin-concentrating hormone receptor 1 (Homo sapiens, UniProt Q99705); experiment: Fluorescence-based counterscreen for antagonists of the G-protein coupled receptor 7 (GPR7): cell-based high throughput dose response assay to identify antagonists of the melanin-concentrating hormone receptor 1 (MCHR1).; format: functional
Sequence of Melanin-concentrating hormone receptor 1 (Q99705 whole entry): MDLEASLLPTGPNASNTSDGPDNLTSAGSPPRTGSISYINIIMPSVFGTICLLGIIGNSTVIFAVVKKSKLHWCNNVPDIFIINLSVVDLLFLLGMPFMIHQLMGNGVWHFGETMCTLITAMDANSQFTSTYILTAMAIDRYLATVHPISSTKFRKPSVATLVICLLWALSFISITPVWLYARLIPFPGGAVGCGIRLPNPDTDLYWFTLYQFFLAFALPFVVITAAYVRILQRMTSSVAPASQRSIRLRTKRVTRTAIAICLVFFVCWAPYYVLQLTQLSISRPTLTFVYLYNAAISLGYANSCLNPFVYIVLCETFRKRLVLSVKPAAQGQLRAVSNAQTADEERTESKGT

[9] = cytotoxicity toward HCT116 cells – cell-based, CellTiter-Glo luminescence, IC50, dose response (AID 1117332); format: functional; conditions: HCT-116
[10] = tested on: Streptococcus; experiment: Group A Streptococcus viability loss, dose response, counter-screen for streptokinase expression inhibitor project, luminescence, BacTiterGlo (AID 1915); format: functional, organism-based;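 further: potency for reduction of bacterial viability or growth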
[11] = target: T2, DNA repair protein RAD52 homolog (Homo sapiens, UniProt P43351); format: functional, biochemical
T2 sequence (P43351 whole entry): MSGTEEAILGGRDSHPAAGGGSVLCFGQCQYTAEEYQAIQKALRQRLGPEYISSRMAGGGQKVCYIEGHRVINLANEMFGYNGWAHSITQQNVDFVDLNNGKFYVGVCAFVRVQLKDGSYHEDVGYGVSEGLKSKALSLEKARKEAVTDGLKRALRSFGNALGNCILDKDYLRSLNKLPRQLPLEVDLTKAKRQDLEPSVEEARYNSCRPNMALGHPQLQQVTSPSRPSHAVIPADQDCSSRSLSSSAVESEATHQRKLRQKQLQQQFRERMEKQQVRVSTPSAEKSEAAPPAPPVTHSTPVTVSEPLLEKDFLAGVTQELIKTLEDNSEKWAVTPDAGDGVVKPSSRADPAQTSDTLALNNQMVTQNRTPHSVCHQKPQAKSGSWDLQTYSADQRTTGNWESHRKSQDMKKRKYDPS

[12] = HCT116 cell viability decrease, GSK3B pretreatment – CellTiter-Glo, IC50, dose response (AID 1117339); format: functional; conditions: HCT-116
[13] = cytotoxicity toward Colo320 cells – cell-based, CellTiter-Glo luminescence, IC50, dose response (AID 1117334); format: functional; conditions: COLO 320
[14] = cytotoxicity toward HT-29 cells – cell-based, CellTiter-Glo luminescence, IC50, dose response (AID 1117330); format: functional
[15] = tested on: Streptococcus sp. 'group A'; experiment: growth inhibition of control SK(-) GAS strain, dose response, counter-screen for streptokinase expression inhibitor project, luminescence, kanamycin, BacTiterGlo, confirmation (AID 1900); format: functional, organism-based
[16] = half-maximal inhibitory concentration for glucagon-like peptide-1 release, STC-1 cell line, dose-response (AID 1117345); format: functional, cell-based
[17] = tested on: INS1; experiment: beta cell apoptosis inhibitors, cytokine rescue, dose response, luminescence, retest (AID 449756); format: functional, cell-based; conditions: Rattus norvegicus;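 further: cell death triggered by IL-1 beta plus TNF-alpha plus IFN-gamma mixture; protective hits raise ATP signal compared with cytokine alone wells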
[18] = Concentration-dependent survival of SW480 colon cancer line, luminescence detection with CellTiter-Glo, half-maximal inhibitory concentration (AID 1117338); format: functional
[19] = target: Vasopressin V1a receptor (Homo sapiens, UniProt P37288); experiment: Counterscreen for Oxytocin Receptor (OXTR) agonists: Fluorescence-based cell-based high throughput dose response assay to identify agonists of the vasopressin 1 receptor (V1R). [Related pubchem assays: 2435 (Primary screen (OXTR agonists in singlicate)), 434991 (Counterscreen (V1R agonists in triplicate)), 2482 (Summary (OXTR agonists)) …; format: functional
[20] = Glucagon-like peptide 1 release potency, NCI-H716 cell line, dose-response, half-maximal inhibitory concentration (AID 1117344); format: functional, cell-based
[21] = SNU-C1 cell viability reduction, dose response, CellTiter-Glo luminescence (AID 1117323); format: functional, cell-based
[22] = target: T3, Protein RecA (Mycobacterium tuberculosis, UniProt P9WHJ3); experiment: Fluorescence Cell-Free Homogeneous Dose Retest to Identify Inhibitors of RecA-Intein Splicing Activity. [Related pubchem assays (depositor defined):AID2097, AID2223, AID489010, AID492950]; format: functional
T3 sequence (P9WHJ3 whole entry): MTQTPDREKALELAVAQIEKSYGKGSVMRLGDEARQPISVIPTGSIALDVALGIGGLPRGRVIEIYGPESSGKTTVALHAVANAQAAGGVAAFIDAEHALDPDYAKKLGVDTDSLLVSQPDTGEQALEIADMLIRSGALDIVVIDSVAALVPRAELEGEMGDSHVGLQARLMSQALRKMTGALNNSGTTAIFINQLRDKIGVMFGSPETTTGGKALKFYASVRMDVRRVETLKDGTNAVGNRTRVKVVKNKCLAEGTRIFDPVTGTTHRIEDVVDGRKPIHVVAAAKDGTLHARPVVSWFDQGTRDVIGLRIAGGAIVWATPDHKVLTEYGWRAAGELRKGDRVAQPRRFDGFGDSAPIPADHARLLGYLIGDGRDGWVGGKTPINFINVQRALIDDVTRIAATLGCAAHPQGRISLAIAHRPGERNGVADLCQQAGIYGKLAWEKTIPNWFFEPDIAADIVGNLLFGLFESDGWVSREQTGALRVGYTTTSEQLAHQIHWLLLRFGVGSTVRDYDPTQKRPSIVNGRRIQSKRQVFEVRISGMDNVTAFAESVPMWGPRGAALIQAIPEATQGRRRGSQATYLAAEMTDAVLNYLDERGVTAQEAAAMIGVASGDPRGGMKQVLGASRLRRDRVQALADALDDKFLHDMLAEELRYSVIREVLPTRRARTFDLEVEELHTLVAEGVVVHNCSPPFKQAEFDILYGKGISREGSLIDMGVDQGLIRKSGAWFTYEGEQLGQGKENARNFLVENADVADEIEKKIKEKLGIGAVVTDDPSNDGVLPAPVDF

[23] = target: Heat shock protein HSP 90-alpha (Homo sapiens, UniProt P07900); format: functional, organism-based
[24] = target: Oxytocin receptor (Homo sapiens, UniProt P30559); experiment: Fluorescence-based cell-based high throughput dose response assay for agonists of the Oxytocin Receptor (OXTR). [Related pubchem assays: 2435 (Primary screen (OXTR agonists in singlicate)), 434991 (Counterscreen (V1R agonists in triplicate)), 2482 (Summary (OXTR agonists)), 434963 (Confirmation screen (OXTR agonists in triplicate))]; format: functional
Sequence of Oxytocin receptor (P30559 whole entry): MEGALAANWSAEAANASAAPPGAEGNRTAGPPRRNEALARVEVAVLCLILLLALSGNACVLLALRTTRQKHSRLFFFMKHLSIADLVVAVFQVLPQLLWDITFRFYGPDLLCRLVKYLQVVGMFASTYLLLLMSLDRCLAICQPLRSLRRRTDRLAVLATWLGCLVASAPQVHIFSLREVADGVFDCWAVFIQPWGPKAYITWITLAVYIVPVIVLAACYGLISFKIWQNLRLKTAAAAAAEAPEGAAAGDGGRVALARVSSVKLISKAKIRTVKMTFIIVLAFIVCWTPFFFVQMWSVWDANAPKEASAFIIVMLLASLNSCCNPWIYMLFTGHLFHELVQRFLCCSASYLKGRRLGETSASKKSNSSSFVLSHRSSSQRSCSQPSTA

[25] = CellTiter-Glo luminescent dose response of DLD-1 viability loss (AID 1117352); format: functional
[26] = target: T4, Replicative DNA helicase DnaB (Mycobacterium tuberculosis, UniProt P9WMR3); experiment: DnaB intein splicing inhibitors, dose response, biochemical, cell-free fluorescence (AID 449749); format: functional
T4 sequence (P9WMR3 whole entry): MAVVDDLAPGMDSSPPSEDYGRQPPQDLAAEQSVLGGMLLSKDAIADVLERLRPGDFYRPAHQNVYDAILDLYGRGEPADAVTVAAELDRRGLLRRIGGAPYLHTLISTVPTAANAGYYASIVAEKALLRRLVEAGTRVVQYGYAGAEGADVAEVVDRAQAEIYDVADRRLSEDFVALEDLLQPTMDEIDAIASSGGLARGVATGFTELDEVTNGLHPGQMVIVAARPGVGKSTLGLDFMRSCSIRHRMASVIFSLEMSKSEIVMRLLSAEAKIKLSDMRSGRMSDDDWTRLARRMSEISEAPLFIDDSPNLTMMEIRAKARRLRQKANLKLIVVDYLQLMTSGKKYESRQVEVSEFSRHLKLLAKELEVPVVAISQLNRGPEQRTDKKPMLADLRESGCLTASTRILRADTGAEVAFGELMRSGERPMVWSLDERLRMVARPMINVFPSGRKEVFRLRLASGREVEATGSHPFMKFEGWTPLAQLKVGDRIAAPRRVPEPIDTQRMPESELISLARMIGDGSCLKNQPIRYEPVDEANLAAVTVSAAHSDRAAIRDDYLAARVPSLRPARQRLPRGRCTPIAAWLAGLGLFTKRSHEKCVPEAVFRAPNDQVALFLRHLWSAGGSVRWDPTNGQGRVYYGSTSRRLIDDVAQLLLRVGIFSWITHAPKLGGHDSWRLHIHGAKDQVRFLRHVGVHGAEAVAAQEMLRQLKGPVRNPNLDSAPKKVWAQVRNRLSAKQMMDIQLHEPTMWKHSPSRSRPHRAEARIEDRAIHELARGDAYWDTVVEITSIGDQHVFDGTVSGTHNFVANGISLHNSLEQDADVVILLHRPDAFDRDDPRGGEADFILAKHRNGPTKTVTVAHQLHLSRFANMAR

[27] = microbe, parasite or virus in culture; format: functional; conditions: Mycobacterium tuberculosis
[28] = RKO cell viability reduction, dose response, CellTiter-Glo luminescence (AID 1117322); format: functional
[29] = tested on: Vero; experiment: Vero cell cytotoxicity, cytotoxicity control for flavivirus capping enzyme inhibitors (AID 588742); format: functional; conditions: Chlorocebus sabaeus
[30] = target: T5, Streptokinase A (Streptococcus pyogenes serotype M1, UniProt P10520); experiment: S. pyogenes streptokinase expression inhibitors, potency, dose response, plasminogen activation absorbance, OD405 (AID 1914); format: functional, Streptococcus pyogenes M1 GAS;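 further: secreted streptokinase activity via plasminogen activation per viability signal from cell pellet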
T5 sequence (P10520 whole entry): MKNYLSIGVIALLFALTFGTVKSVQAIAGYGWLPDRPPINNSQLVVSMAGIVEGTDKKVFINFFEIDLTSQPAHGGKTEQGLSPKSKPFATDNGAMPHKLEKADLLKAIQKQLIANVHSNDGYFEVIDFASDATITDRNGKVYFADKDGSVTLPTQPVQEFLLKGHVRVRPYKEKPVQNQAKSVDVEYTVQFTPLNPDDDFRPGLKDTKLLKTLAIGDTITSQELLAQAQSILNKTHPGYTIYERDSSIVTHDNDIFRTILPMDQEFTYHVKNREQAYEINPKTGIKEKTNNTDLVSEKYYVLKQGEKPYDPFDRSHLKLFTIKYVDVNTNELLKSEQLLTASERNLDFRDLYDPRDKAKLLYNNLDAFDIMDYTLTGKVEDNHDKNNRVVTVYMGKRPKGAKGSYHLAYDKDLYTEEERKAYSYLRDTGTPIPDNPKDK

Cc1c(N2C(=O)c3ccc4c5c(ccc(c35)C2=O)CC4)c(=O)n(-c2ccccc2)n1C
IC50 [1]: > 39.8 µM (not active) | IC50 [2]: 15.7 µM (active) | IC50 [3]: 5.83 µM (active) | IC50 [4]: 2.27 µM (active) | IC50 [5]: > 39.8 µM (not active) | IC50 [6]: > 49.8 µM (not active)

COc1cc(/C=C(\C#N)C(=O)Nc2ccc(C(=O)O)cc2)ccc1OC(=O)c1cccc(F)c1
IC50 [7]: 5.86 µM (active) | IC50 [8]: 12 µM (not active)

CCCCCCCCCCCCCCCC[N+](C)(C)CC
IC50 [9]: 3.16 µM (active) | EC50 [10]: 8.57 µM (active) | AC50 [11]: 8.98 µM (active) | IC50 [12]: 2.68 µM (active) | IC50 [13]: 0.0372 µM (active) | IC50 [14]: 0.409 µM (active) | EC50 [15]: 1.3 µM (active) | IC50 [16]: > 40 µM (inactive) | AC50 [17]: 2.97 µM (active) | IC50 [18]: 1.24 µM (active) | EC50 [19]: > 3.32 µM (active) | IC50 [20]: 11.7 µM (inactive) | IC50 [21]: 0.004 µM (active) | EC50 [22]: 13.2 µM (active) | AC50 [23]: 1.16 µM (active) | EC50 [24]: > 29.9 µM (not active) | IC50 [25]: 0.74 µM (active) | AC50 [26]: 4.56 µM (active) | CC50 [27]: 34.8 µM (active) | IC50 [28]: 0.931 µM (active) | CC50 [29]: 32.7 µM (active) | EC50 [30]: 23.2 µM (inconclusive)
